According to patent US6682732B1, “Treatment of lesions” (The University of Bath, priority 1998, dated 2004):

Key:
E.coli = experiment: Effect of xanthine oxidase derived species on cell viability at a range of oxygen concentrations (Test 6(b)); format: cell-based, Escherichia coli; settings: XO, NADH, NaNO2 system
Description: To obtain cells used in this test, the infective bacterial strain Escherichia coli NCTC 86 (E.coli) was cultured on nutrient agar at 37° until colony formation occurred, usually overnight. This stock culture was used for subsequent experiments including sub-culturing in nutrient broth and plated onto agar weekly. Experimental cultures of E.coli were set up overnight in nutrient broth from single colonies on an agar plate. Cells were harvested and counted using a standard curve of known absorbance at 470 nm against viable cell count. Peroxynitrite was generated by the method of Crow et al BIOCHEM. 34 pages 3544 to 3552 (1995). In accordance with that method, a mixture of sodium nitrite and hydrogen peroxide was reacted under acid conditions then immediately quenched by the addition of sodium hydroxide. The concentration of ONOO^− formed was measured using an absorption coefficient of 1670 M^−1 cm^−1 in a spectrophotometer at a wavelength of 303 nm. […]
E.coli were cultured as described above. […] Desired oxygen concentrations were generated by delivery of a mixture of oxygen and nitrogen in appropriate proportions and determined using a Clark type O2 electrode. […] Viable cells formed colonies on the agar and were counted. Viable cell counts were performed in triplicate and the results expressed as a percentage viable count in each case related to a non enzyme control of the same oxygen concentration. […]

[1] = Nitric oxide release from pure bovine xanthine oxidase with NADH and nitrite under hypoxic conditions (ozone chemiluminescence, Tests 1-3); format: biochemical
Description: The production of nitric oxide in the following tests and examples was analysed using an ozone chemiluminescence assay in a continuous flow apparatus (Sievers NOA 280) that allows the real time analysis of NO production. The apparatus was modified to allow a constant stream of nitrogen to flow into the reaction chamber. Chemiluminescence data were collected by a data acquisition system; the mean NO produced in parts per billion (ppb) was calculated from readings taken every second and shown as NO ppb/s. Progress curves, of molar production of NO against time, were calculated by taking into account the gas flow and successively integrating the ppb/s curves. […]
(d) Samples of NO were taken from the reaction cell by a needle that was connected to a Sievers Nitric Oxide Analyser (NOA-280 ) and the results were recorded for analysis using a computer.
(e) At time (t) 0 minutes, the NOA-280 started the measurement of NO from the reaction cell. At t=1 minute, the contents of the “substrates” bijou were injected into the reaction cell using a 1 ml syringe and the background NO was measured.
(f) At t=5 minutes, the contents of the “milk” bijou were injected into the reaction cell using a 1 ml syringe and the release of NO was monitored for a further 20 minutes. […]

[2] = test system: Staphylococcus aureus 6751; experiment: Bacterial growth rate by optical density, 96 well plate (Tests 6(d), 6(e)); format: cell-based
Description: (§1) Bacteria were seeded into nutrient broth (NB) and grown over night at 37° C. The culture was then counted and normalised to give a final cell concentration of 1.8×10^7 cells well^−1 into the wells of a 96 well plate in fresh nutrient broth. The optical density of each well was monitored every 15 minutes as a measure of the growth rate of each bacterial species. Growth curves were generated for each species and the maximal rate of growth (logarithmic phase) was measured. Cells were treated to a range of experimental conditions in which the growth rate of cells was related to a control of untreated cells. The results were expressed as a percentage of the growth rate of the control cells.
(§2) (i) At a fixed concentration of hypoxanthine (100 μM) a range of purified XO protein concentrations were added at time 0 minutes. The optical density was followed and the growth rate calculated.
(§3) (ii) The growth rate was also measured in relation to the concentration of hypoxanthine, using 30 μg of XO with cells seeded as described above.

S. enteritidis [3] = experiment: Effect of xanthine oxidase derived species on cell viability at a range of oxygen concentrations (Test 6(b)); format: cell-based; settings: XO, NADH, NaNO2 system
Description: Aliquots were taken and incubated with a reaction system consisting of bovine Xanthine oxidase (XO) (53.2 μgml^−1), nicotinamide adenine dinucleotide in reduced form (NADH) (300 μM), sodium nitrite, (NaNO2) 1 mM and oxygen at a range of concentrations. […] This reaction was followed at 37° C. for 30 min with mixing before an aliquot was taken and plated onto agar and incubated in a warm room at 37° C. Viable cells formed colonies on the agar and were counted. Viable cell counts were performed in triplicate and the results expressed as a percentage viable count in each case related to a non enzyme control of the same oxygen concentration. […] The range of oxygen tensions used covers those in which XO has previously been considered to be active, namely superoxide generation (21% O2 saturation) and nitric oxide production (0% O2 saturation).

Straphylococcu aureus = experiment: Incubation of Gram positive bacteria with SIN-1, growth; format: cell-based
S. enteritidis [4] = experiment: Peroxynitrite effect on cell viability, colony count (Test 6(a)); format: cell-based
Description: Cells cultured as described above were diluted to suitable working concentrations (10^4-10^5 Cells Ml^−1) in sterile phosphate buffered saline (PBS). ONOO^− at a range of concentrations from 100 μM to 0.01 μM was added as a bolus dose to cells and incubated at room temperature for ten minutes. Aliquots were taken from the cell cultures and plated on to nutrient agar and incubated in a warm room at 37° C. overnight. Viable cells formed colonies on the agar and were counted. The number of colonies formed was related to an untreated control and a graph of the results is shown in FIG. 1, which illustrates the effect of ONOO^− on cell viability.

E. coli = experiment: Effect of peroxynitrite scavenger on bacterial growth, growth curves by absorbance (Test 6(c)); format: cell-based
Description: E. coli were seeded into nutrient broth at 2.10^7 cell ml^−1 and incubated at 37° C. under atmospheric air conditions (that is, 21% oxygen saturation). Four separate test samples of volume 1 ml were prepared by addition at 1 hour of incubation as follows:
1 Peroxynitrite at concentration 100 μM.
2 Peroxynitrite at 100 μM and quercetin (peroxynitrite scavenger) at 100 μμM.
3 Xanthine oxidase (53.2 μg) and xanthine at 100 μM.
4 Xanthine oxidase (53.2 μg) and NADH at 100 μM.
Corresponding controls were also prepared, and the growth curves generated over time determined by monitoring absorbance.

Escherichia coli NCTC 86 = experiment: Peroxynitrite effect on cell viability, colony count (Test 6(a)); format: cell-based; settings: E. coli; 100 μM to 0.01 μM; FIG. 1
Description: To obtain cells used in this test, the infective bacterial strain Escherichia coli NCTC 86 (E.coli) was cultured on nutrient agar at 37° until colony formation occurred, usually overnight. This stock culture was used for subsequent experiments including sub-culturing in nutrient broth and plated onto agar weekly. Experimental cultures of E.coli were set up overnight in nutrient broth from single colonies on an agar plate. Cells were harvested and counted using a standard curve of known absorbance at 470 nm against viable cell count. Peroxynitrite was generated by the method of Crow et al BIOCHEM. 34 pages 3544 to 3552 (1995). In accordance with that method, a mixture of sodium nitrite and hydrogen peroxide was reacted under acid conditions then immediately quenched by the addition of sodium hydroxide. The concentration of ONOO^− formed was measured using an absorption coefficient of 1670 M^−1 cm^−1 in a spectrophotometer at a wavelength of 303 nm. Solutions of different concentrations for use in (a) below were obtained by dilution of the product solution using PBS.
Cells cultured as described above were diluted to suitable working concentrations (10^4-10^5 Cells Ml^−1) in sterile phosphate buffered saline (PBS). […] Viable cells formed colonies on the agar and were counted. […]

Lactobacillus casei 6375 = experiment: Bacterial growth rate by optical density, 96 well plate (Tests 6(d), 6(e)); format: cell-based; settings: highest concentration
Description: as §1, §2, §3

XOR: Bovine xanthine oxidase (XOR), Biozyme, Blaenavon, UK; 10.7 mg/ml, batch 104AX
killing at oxygen concentrations of about 21% (E.coli): about 5% | optimum pH for the production of NO from XOR [1]: ~5.5 pH | growth inhibition by XO ([2]; hypoxanthine 100 μM, compared with Lactobacillus, FIG. 3): less marked growth inhibition | killing at oxygen concentrations of about 21% (S. enteritidis [3]): about 10%

OO [H2O2, hydrogen peroxide]
growth inhibition in the presence of H2O2 ([2]; S. aureus, concentration ranges used): very limited

N=c1c[n+](N2CCOCC2)[n-]o1 [SIN-1, 3-morpholinosydnonimine]
growth on incubation with SIN-1 (Straphylococcu aureus): reduced growth in dependence on the amount of added SIN-1

O=NOO [Peroxynitrite]
effect on viability (S. enteritidis [4]): reduce viability | killing (growth curves) (E. coli; sample (1): peroxynitrite 100 μM added at 1 hour, 21% oxygen saturation): strong killing | effect on cell viability (viable count) (Escherichia coli NCTC 86): profound inhibitory effect

O=c1[nH]c(=O)c2c[nH]nc2[nH]1 [Oxypurinol]
effect on growth rate when added alone (Lactobacillus casei 6375): no effect on growth rate

O=c1c(O)c(-c2ccc(O)c(O)c2)oc2cc(O)cc(O)c12 [quercetin]
effect of scavenger on peroxynitrite killing (E. coli; sample (2): peroxynitrite 100 μM and quercetin 100 μμM): clear effect in reducing killing
